Measured values from article PMC4114983, “The “Gate Keeper” Role of Trp222 Determines the Enantiopreference of Diketoreductase toward 2-Chloro-1-Phenylethanone” (PLoS ONE, 2014).
pKd: −log10 of the molar value. Where two headings read alike, the source gives them in different places.

Legend:
diketoreductase (DKR) [1] = molecular target: T1, diketoreductase (DKR) (Acinetobacter baylyi, UniProt B1P3E1, W222F); test: intrinsic Trp fluorescence quenching, quadratic fit; type: binding
T1 construct: full-length in pET22b(+), E. coli BL21(DE3); DEAE and Sephadex G-100 purified; homodimer, 283 residues per subunit
T1 sequence (B1P3E1 entry or part of it W222F): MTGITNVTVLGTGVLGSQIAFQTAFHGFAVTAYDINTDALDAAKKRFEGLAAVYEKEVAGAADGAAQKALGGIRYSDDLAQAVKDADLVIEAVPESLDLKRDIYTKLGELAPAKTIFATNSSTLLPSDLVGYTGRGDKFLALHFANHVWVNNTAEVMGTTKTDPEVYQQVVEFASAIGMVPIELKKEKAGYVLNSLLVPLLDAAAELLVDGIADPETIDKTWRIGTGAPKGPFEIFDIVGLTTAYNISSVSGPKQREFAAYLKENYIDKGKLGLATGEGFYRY
Excerpt: (§1) intrinsic Trp fluorescence quenching, quadratic fit on WT-DKR; diketoreductase (DKR)

diketoreductase (DKR) [2] = molecular target: T2, diketoreductase (DKR) (Acinetobacter baylyi, UniProt B1P3E1, W222M); test: as above; type: binding
T2 construct: full-length in pET22b(+), E. coli BL21(DE3); DEAE and Sephadex G-100 purified; homodimer, 283 residues per subunit
T2 sequence (B1P3E1 entry or part of it W222M): as the sequence (B1P3E1 entry or part of it W222F) above
Excerpt: as §1

[3] = molecular target: T3, WT-DKR; diketoreductase (DKR) (Acinetobacter baylyi, UniProt B1P3E1); test: as above; type: binding
T3 construct: full-length in pET22b(+), E. coli BL21(DE3); DEAE and Sephadex G-100 purified; homodimer, 283 residues per subunit
Excerpt: as §1
Target sequence in this assay (B1P3E1 entry or part of it W222L): as the sequence (B1P3E1 entry or part of it W222F) above

diketoreductase (DKR) [4] = molecular target: T4, diketoreductase (DKR) (Acinetobacter baylyi, UniProt B1P3E1, W222V); test: as above; type: binding
T4 construct: full-length in pET22b(+), E. coli BL21(DE3); DEAE and Sephadex G-100 purified; homodimer, 283 residues per subunit
T4 sequence (B1P3E1 entry or part of it W222V): as the sequence (B1P3E1 entry or part of it W222F) above
Excerpt: as §1

diketoreductase (DKR) [5] = molecular target: T5, diketoreductase (DKR) (Acinetobacter baylyi, UniProt B1P3E1, W222Y); test: as above; type: binding
T5 construct: full-length in pET22b(+), E. coli BL21(DE3); DEAE and Sephadex G-100 purified; homodimer, 283 residues per subunit
T5 sequence (B1P3E1 entry or part of it W222Y): as the sequence (B1P3E1 entry or part of it W222F) above
Excerpt: as §1

[6] = molecular target: T3, WT-DKR; diketoreductase (DKR); test: as above; type: binding; remark: listed apart in the source
Excerpt: as §1
Target sequence in this assay (B1P3E1 entry or part of it): as the sequence (B1P3E1 entry or part of it W222F) above

[7] = molecular target: T3, WT-DKR; diketoreductase (DKR); test: NADH oxidation, absorbance; type: biochemical; conditions: 0.15 mM NADH constant, potassium phosphate pH 6.0; average of two measurements
Excerpt: (§2) NADH oxidation, absorbance on WT-DKR; diketoreductase (DKR)
Target sequence in this assay (B1P3E1 entry or part of it): as the sequence (B1P3E1 entry or part of it W222F) above

diketoreductase (DKR) [8] = molecular target: T6, diketoreductase (DKR) (Acinetobacter baylyi, UniProt B1P3E1, W222L); test: NADH oxidation, absorbance; type: biochemical; conditions: 0.15 mM NADH constant, potassium phosphate pH 6.0; average of two measurements
T6 construct: full-length in pET22b(+), E. coli BL21(DE3); DEAE and Sephadex G-100 purified; homodimer, 283 residues per subunit
T6 sequence (B1P3E1 entry or part of it W222L): as the sequence (B1P3E1 entry or part of it W222F) above
Excerpt: as §2

[9] = molecular target: T7, WT-DKR; diketoreductase (DKR) (Acinetobacter baylyi, UniProt B1P3E1, W222M); test: NADH oxidation, absorbance; type: biochemical; conditions: 0.15 mM NADH constant, potassium phosphate pH 6.0; average of two measurements
T7 construct: full-length in pET22b(+), E. coli BL21(DE3); DEAE and Sephadex G-100 purified; homodimer, 283 residues per subunit
T7 sequence (B1P3E1 entry or part of it W222M): as the sequence (B1P3E1 entry or part of it W222F) above
Excerpt: as §2

[10] = molecular target: T8, WT-DKR; diketoreductase (DKR) (Acinetobacter baylyi, UniProt B1P3E1, W222F); test: NADH oxidation, absorbance; type: biochemical; conditions: 0.15 mM NADH constant, potassium phosphate pH 6.0; average of two measurements
T8 construct: full-length in pET22b(+), E. coli BL21(DE3); DEAE and Sephadex G-100 purified; homodimer, 283 residues per subunit
T8 sequence (B1P3E1 entry or part of it W222F): as above
Excerpt: as §2

diketoreductase (DKR) [11] = molecular target: T4, diketoreductase (DKR); test: NADH oxidation, absorbance; type: biochemical; conditions: 0.15 mM NADH constant, potassium phosphate pH 6.0; average of two measurements
Excerpt: as §2

diketoreductase (DKR) [12] = molecular target: T5, diketoreductase (DKR); test: NADH oxidation, absorbance; type: biochemical; conditions: 0.15 mM NADH constant, potassium phosphate pH 6.0; average of two measurements
Excerpt: as §2

With `O=C(CCl)c1ccccc1` [2-chloro-1-phenylethanone] as the molecule, how does the pKd (diketoreductase (DKR) [1]) read?
The pKd was 3.32.

And the pKd (diketoreductase (DKR) [2])?
Its pKd is 3.34.

And the pKd [3]?
Its pKd is 3.34.

What about the pKd (diketoreductase (DKR) [4]) of the same molecule?
The pKd was 3.30.

What about the pKd (diketoreductase (DKR) [5]) of the same molecule?
Its pKd is 3.34.

What about the pKd [6] of the same molecule?
Its pKd is 3.34.

What about the Km [7] of the same molecule?
The Km was 1130 µM.

What about the Km (diketoreductase (DKR) [8]) of the same molecule?
The Km was 3160 µM.

What about the Km [9] of the same molecule?
The Km was 2800 µM.

What about the Km [10] of the same molecule?
Its Km is 4180 µM.

And the Km (diketoreductase (DKR) [11])?
The Km was 302 µM.

And the Km (diketoreductase (DKR) [12])?
Its Km is 2510 µM.
